Test results taken from ChEMBL document CHEMBL1201862, “PubChem BioAssay data set” (2004).
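48-hour exposure; five concentrations; linearly interpolated endpoints. Here, GI50 denotes the concentration required for 50% inhibition of growth.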 The source made the active and inactive calls. Rule as the data show it: active = GI50 up to about 1.1 µM and inactive = higher.

Legend:
Experiment in all cases: inhibition of tumour cell growth, NCI panel, 48 h
[1] = test system: MDA-N
[2] = test system: A549
[3] = test system: SF-295
[4] = test system: NCI-H460
[5] = test system: MDA-MB-435
[6] = test system: M14
[7] = test system: SF-268
[8] = test system: LOX IMVI
[9] = test system: IGROV-1
[10] = test system: RPMI-8226
[11] = test system: 786-0
[12] = test system: HCC 2998
[13] = test system: COLO 205
[14] = test system: UACC-62
[15] = test system: SK-MEL-28
[16] = test system: MOLT-4
[17] = test system: UACC-257
[18] = test system: SN12C
[19] = test system: HOP-62

Compound	GI50 [1]	GI50 [2]	GI50 [3]	GI50 [4]	GI50 [5]	GI50 [6]	GI50 [7]	GI50 [8]	GI50 [9]	GI50 [10]	GI50 [11]	GI50 [12]	GI50 [13]	GI50 [14]	GI50 [15]	GI50 [16]	GI50 [17]	GI50 [18]	GI50 [19]
COC(=O)N1C2C(C[C@@]1(C)C(=O)OC)c1ccccc1N2S(=O)(=O)c1ccccc1 (some centres not stated)	> 100 µM (inactive)	> 100 µM (inactive)	> 100 µM (inactive)	> 100 µM (inactive)	> 100 µM (inactive)	> 100 µM (inactive)	> 100 µM (inactive)	> 100 µM (inactive)	> 100 µM (inactive)	> 100 µM (inactive)	> 100 µM (inactive)	> 100 µM (inactive)	> 100 µM (inactive)	> 100 µM (inactive)	> 100 µM (inactive)	> 100 µM (inactive)	> 100 µM (inactive)		
NC(Cc1ccc(O)cn1)C(=O)NC(C(=O)O)c1ccccc1 (configuration not stated)	> 100 µM (inactive)	> 100 µM (inactive)	> 100 µM (inactive)	> 100 µM (inactive)	> 100 µM (inactive)		> 100 µM (inactive)	> 100 µM (inactive)	> 100 µM (inactive)	> 100 µM (inactive)	> 100 µM (inactive)	> 100 µM (inactive)	> 100 µM (inactive)		> 100 µM (inactive)	> 100 µM (inactive)	> 100 µM (inactive)	> 100 µM (inactive)	> 100 µM (inactive)
C=CC1(CC/C(=C\[N+](=O)[O-])c2ccc(OC)c(OC)c2)OCC(C)(C)CO1	21.8 µM (inactive)	23.3 µM (inactive)	18.7 µM (inactive)	18.2 µM (inactive)	19.7 µM (inactive)	17.8 µM (inactive)	16 µM (inactive)	12.8 µM (inactive)			17.1 µM (inactive)	24.5 µM (inactive)	18 µM (inactive)	13.2 µM (inactive)	19.8 µM (inactive)	1.46 µM (inactive)	10.2 µM (inactive)	21 µM (inactive)	18.3 µM (inactive)
CC1OC(O[C@H]2CC[C@]3(C)[C@H]4CC=C5[C@@H]6[C@@H](C)[C@H](C)CC[C@]6(C(=O)OC6OC(CO)C(O)C(O)C6O)CC[C@@]5(C(=O)O)[C@]4(C)CC[C@H]3C2(C)C)C(O)C(O)C1O (some centres not stated)	> 100 µM (inactive)		> 100 µM (inactive)	> 100 µM (inactive)	> 100 µM (inactive)	> 100 µM (inactive)	> 100 µM (inactive)	> 100 µM (inactive)			> 100 µM (inactive)	> 100 µM (inactive)	> 100 µM (inactive)	> 100 µM (inactive)		> 100 µM (inactive)	> 100 µM (inactive)	> 100 µM (inactive)	> 100 µM (inactive)
CCCCCCCCCCCCCCCC(=O)Nc1ccn(C2CC(OP(=O)(O)OCC3OC(n4cc(F)c(=O)[nH]c4=O)CC3OC(C)=O)C(CO)O2)c(=O)n1 (configuration not stated)	42.5 µM (inactive)	0.836 µM (active)	1.81 µM (inactive)	0.0664 µM (active)	34.7 µM (inactive)	11.4 µM (inactive)	0.528 µM (active)	1.29 µM (inactive)	23.9 µM (inactive)	3.81 µM (inactive)	6.47 µM (inactive)		18.3 µM (inactive)	8.32 µM (inactive)	30.5 µM (inactive)	7.55 µM (inactive)	> 57.1 µM (inactive)	6.03 µM (inactive)	0.351 µM (active)
C=CC(Br)(CBr)CCC(Br)C(C)(C)Cl (configuration not stated)	3.09 µM (inactive)	11.5 µM (inactive)	1.82 µM (inactive)	2.21 µM (inactive)	2.3 µM (inactive)	5.14 µM (inactive)	2.02 µM (inactive)		5.31 µM (inactive)	0.579 µM (active)	2.35 µM (inactive)	6.22 µM (inactive)	2.21 µM (inactive)	4.78 µM (inactive)	2.36 µM (inactive)	0.555 µM (active)	3.87 µM (inactive)	5.48 µM (inactive)	3.78 µM (inactive)
CC(=O)/C=C1\Nc2sc(C)c(C)c2C(=O)S1	88.3 µM (inactive)	> 100 µM (inactive)	48 µM (inactive)	10 µM (inactive)	47.3 µM (inactive)	97.7 µM (inactive)	28.8 µM (inactive)	44.6 µM (inactive)	29.6 µM (inactive)	38.6 µM (inactive)	62.8 µM (inactive)		> 100 µM (inactive)	65.8 µM (inactive)	> 100 µM (inactive)	10 µM (inactive)	70 µM (inactive)	84.3 µM (inactive)	89.7 µM (inactive)
Cc1cccc2sc(NC(=O)NS(=O)(=O)n3cnc4ccccc43)nc12	31.3 µM (inactive)	37.5 µM (inactive)	20.9 µM (inactive)	29.9 µM (inactive)	27.9 µM (inactive)	31.3 µM (inactive)	28.5 µM (inactive)		16.5 µM (inactive)	21.5 µM (inactive)	33.8 µM (inactive)	15.6 µM (inactive)	27.8 µM (inactive)	18.3 µM (inactive)	35.9 µM (inactive)	26.5 µM (inactive)	23 µM (inactive)	25.9 µM (inactive)	34.7 µM (inactive)
COC(=O)[C@H](Cc1c[nH]c2ccccc12)NP(=O)(O)OCC1C=CC(n2cc(C)c(=O)[nH]c2=O)O1 (some centres not stated)	> 100 µM (inactive)				> 100 µM (inactive)		> 100 µM (inactive)	> 100 µM (inactive)	> 100 µM (inactive)	> 100 µM (inactive)	> 100 µM (inactive)	> 100 µM (inactive)	> 100 µM (inactive)	> 100 µM (inactive)	> 100 µM (inactive)	> 100 µM (inactive)		> 100 µM (inactive)	> 100 µM (inactive)
COC(=O)C1Cc2c([nH]c3ccccc23)-c2[nH]c3ccccc3c2CC(NC(C)=O)C(=O)N2CCCC2C(=O)N1 (configuration not stated)	> 100 µM (inactive)	> 100 µM (inactive)	> 100 µM (inactive)	> 100 µM (inactive)	> 100 µM (inactive)		> 100 µM (inactive)	> 100 µM (inactive)	24.8 µM (inactive)	56.8 µM (inactive)	> 100 µM (inactive)	> 100 µM (inactive)	53.1 µM (inactive)	> 100 µM (inactive)	> 100 µM (inactive)	66.7 µM (inactive)	> 100 µM (inactive)	> 100 µM (inactive)	> 100 µM (inactive)
Cc1ccc(OP(=O)(Oc2ccc(C)cc2)N2C=Cc3ccccc3C2C#N)cc1 (configuration not stated)	> 100 µM (inactive)	> 100 µM (inactive)	> 100 µM (inactive)	> 100 µM (inactive)	> 100 µM (inactive)	> 100 µM (inactive)	> 100 µM (inactive)	> 100 µM (inactive)	> 100 µM (inactive)	> 100 µM (inactive)	> 100 µM (inactive)		> 100 µM (inactive)	> 100 µM (inactive)	> 100 µM (inactive)	> 100 µM (inactive)	> 100 µM (inactive)	> 100 µM (inactive)	> 100 µM (inactive)
Nc1nc(N)c2ncn(-c3ccc(Cl)cc3)c2n1	89.1 µM (inactive)	37 µM (inactive)	33.7 µM (inactive)		87.3 µM (inactive)	39 µM (inactive)		36.6 µM (inactive)	6.97 µM (inactive)		70.3 µM (inactive)	30.2 µM (inactive)	75.5 µM (inactive)	29.7 µM (inactive)	> 100 µM (inactive)		> 100 µM (inactive)	36.6 µM (inactive)	74.3 µM (inactive)
COCC([C@@H](O)C(O)C(=O)NCC[C@@H](C)c1nc(/C=C/CC2OC3(C[C@H](O)C2C)OC(C(C[C@H](O)C(C)[C@H](O)C(C)/C=C(C)/C(C)=C/C=C/C(C)=C/C#N)OC)[C@@H](OP(=O)(O)O)C3(C)C)co1)N(C)C (some centres not stated)	0.000191 µM (active)	0.0004 µM (active)	0.000184 µM (active)	0.000139 µM (active)	0.000175 µM (active)	0.000173 µM (active)	0.000192 µM (active)	0.000245 µM (active)	0.000161 µM (active)	0.000272 µM (active)	0.000176 µM (active)	0.000185 µM (active)	0.000171 µM (active)	0.000195 µM (active)	0.000184 µM (active)	0.00082 µM (active)	0.00105 µM (active)	0.000179 µM (active)	
NS(=O)(=O)c1ccc(/N=N/c2ccc(O)c(O)c2)cc1	20.6 µM (inactive)	20.3 µM (inactive)	37 µM (inactive)	19.9 µM (inactive)	15.1 µM (inactive)	24.5 µM (inactive)	14.5 µM (inactive)	15 µM (inactive)	11.7 µM (inactive)	10.7 µM (inactive)	12.4 µM (inactive)	21.2 µM (inactive)	20.7 µM (inactive)		18.1 µM (inactive)	3.79 µM (inactive)	24.3 µM (inactive)	10.4 µM (inactive)	27.4 µM (inactive)
O=C(O)c1cc(O)c2c(c1)Cc1cccc(O)c1C2=O	> 10 µM (inactive)	31.4 µM (inactive)	20.3 µM (inactive)	23.3 µM (inactive)	33.6 µM (inactive)	23.4 µM (inactive)	25.4 µM (inactive)		> 10 µM (inactive)	21.9 µM (inactive)	30.5 µM (inactive)	41.4 µM (inactive)	24.2 µM (inactive)	19.1 µM (inactive)	34.1 µM (inactive)	22.7 µM (inactive)	26.7 µM (inactive)	16.6 µM (inactive)	19.1 µM (inactive)
